Legend:
Type in all cases: in vivo
Parameters in all cases: key: 1=total damage; 9=no action; Ratings of from 1 to 4 (especially from 1 to 3) indicate good to very good herbicidal action
[1] = tested on: Setaria; assay: Pre-emergence herbicidal action (Example B1); conditions: 2000 g a.i./ha, sprayed immediately after sowing, evaluated after 3 weeks, scale of nine ratings
Protocol: (§1) Monocotyledonous and dicotyledonous test plants are sown in standard soil in plastics pots. Immediately after sowing, the test compounds, each in the form of an aqueous suspension or emulsion prepared from a 25% emulsifiable concentrate (Example F1, c) in WO 97/34485, pages 9 and 10), are applied by spraying at a rate of application of 2000 g of active ingredient/ha (500 liters water/ha). The test plants are then grown in a greenhouse under optimum conditions. After 3 weeks' test duration, the test is evaluated in accordance with a scale of nine ratings (1=total damage, 9=no action). Ratings of from 1 to 4 (especially from 1 to 3) indicate good to very good herbicidal action.
(§2) Test plants: Avena, Setaria, Sinapis, Stellaria

[2] = tested on: Avena; assay: Pre-emergence herbicidal action (Example B1); conditions: 2000 g a.i./ha, sprayed immediately after sowing, evaluated after 3 weeks, scale of nine ratings
Protocol: as §1, §2

[3] = tested on: Sinapis; assay: Pre-emergence herbicidal action (Example B1); conditions: 2000 g a.i./ha, sprayed immediately after sowing, evaluated after 3 weeks, scale of nine ratings
Protocol: as §1, §2

[4] = tested on: Stellaria; assay: Pre-emergence herbicidal action (Example B1); conditions: 2000 g a.i./ha, sprayed immediately after sowing, evaluated after 3 weeks, scale of nine ratings
Protocol: as §1, §2

[5] = tested on: Setaria; assay: Post-emergence herbicidal action (Example B2); conditions: 2000 g a.i./ha, sprayed at 4- to 6-leaf stage, evaluated after approximately 18 days, scale of nine ratings
Protocol: (§3) Monocotyledonous and dicotyledonous test plants are grown in a greenhouse in plastics pots containing standard soil and at the 4- to 6-leaf stage are sprayed with an aqueous suspension or emulsion of the test substances of formula I, prepared from a 25% emulsifiable concentrate (Example F1, c) in WO 97/34485, pages 9 and 10), at a rate of application corresponding to 2000 g of active ingredient/ha (500 liters water/ha). The test plants are then grown on in the greenhouse under optimum conditions. After approximately 18 days' test duration, the test is evaluated in accordance with a scale of nine ratings (1=total damage, 9=no action). Ratings of from 1 to 4 (especially from 1 to 3) indicate good to very good herbicidal action.
as §2

[6] = tested on: Avena; assay: Post-emergence herbicidal action (Example B2); conditions: 2000 g a.i./ha, sprayed at 4- to 6-leaf stage, evaluated after approximately 18 days, scale of nine ratings
Protocol: as §3, §2

[7] = tested on: Sinapis; assay: Post-emergence herbicidal action (Example B2); conditions: 2000 g a.i./ha, sprayed at 4- to 6-leaf stage, evaluated after approximately 18 days, scale of nine ratings
Protocol: as §3, §2

[8] = tested on: Stellaria; assay: Post-emergence herbicidal action (Example B2); conditions: 2000 g a.i./ha, sprayed at 4- to 6-leaf stage, evaluated after approximately 18 days, scale of nine ratings
Protocol: as §3, §2

## CCOC(=O)CCCn1c(-c2nn(C)c(OC(F)F)c2Cl)c(F)cc(Cl)c1=O [Example 1.205]
[1]
  Pre-emergence action: Setaria (rating): 1
[2]
  Pre-emergence action: Avena (rating): 1
[3]
  Pre-emergence action: Sinapis (rating): 1
[4]
  Pre-emergence action: Stellaria (rating): 1
[5]
  Post-emergence action: Setaria (rating): 1
[6]
  Post-emergence action: Avena (rating): 1
[7]
  Post-emergence action: Sinapis (rating): 1
[8]
  Post-emergence action: Stellaria (rating): 1

## CCC(=O)Cn1c(-c2nn(C)c(OC(F)F)c2Cl)c(F)cc(Cl)c1=O [Example 1.302]
[1]
  Pre-emergence action: Setaria (rating): 1
[2]
  Pre-emergence action: Avena (rating): 1
[3]
  Pre-emergence action: Sinapis (rating): 1
[4]
  Pre-emergence action: Stellaria (rating): 1
[5]
  Post-emergence action: Setaria (rating): 1
[6]
  Post-emergence action: Avena (rating): 1
[7]
  Post-emergence action: Sinapis (rating): 1
[8]
  Post-emergence action: Stellaria (rating): 1

## COn1c(-c2nn(C)c(OC(F)F)c2Cl)c(F)cc(Cl)c1=O [Example 1.400]
[1]
  Pre-emergence action: Setaria (rating): 1
[2]
  Pre-emergence action: Avena (rating): 1
[3]
  Pre-emergence action: Sinapis (rating): 1
[4]
  Pre-emergence action: Stellaria (rating): 1
[5]
  Post-emergence action: Setaria (rating): 2
[6]
  Post-emergence action: Avena (rating): 1
[7]
  Post-emergence action: Sinapis (rating): 1
[8]
  Post-emergence action: Stellaria (rating): 1

## C#CCn1c(-c2nn(CC)c(OC(F)F)c2Cl)c(F)cc(Cl)c1=O [Example 7.100]
[1]
  Pre-emergence action: Setaria (rating): 1
[2]
  Pre-emergence action: Avena (rating): 1
[3]
  Pre-emergence action: Sinapis (rating): 1
[4]
  Pre-emergence action: Stellaria (rating): 1
[5]
  Post-emergence action: Setaria (rating): 1
[6]
  Post-emergence action: Avena (rating): 1
[7]
  Post-emergence action: Sinapis (rating): 1
[8]
  Post-emergence action: Stellaria (rating): 1

## Cn1nc(-c2c(F)cc(Cl)c(=O)n2C)c(Cl)c1C(F)(F)F [Example 9.002]
[1]
  Pre-emergence action: Setaria (rating): 3
[2]
  Pre-emergence action: Avena (rating): 1
[3]
  Pre-emergence action: Sinapis (rating): 1
[4]
  Pre-emergence action: Stellaria (rating): 1
[5]
  Post-emergence action: Setaria (rating): 3
[6]
  Post-emergence action: Avena (rating): 1
[7]
  Post-emergence action: Sinapis (rating): 1
[8]
  Post-emergence action: Stellaria (rating): 1

## C#CCn1c(-c2nn(C)c(C(F)(F)F)c2Cl)c(F)cc(Cl)c1=O [Example 9.100]
[1]
  Pre-emergence action: Setaria (rating): 1
[2]
  Pre-emergence action: Avena (rating): 1
[3]
  Pre-emergence action: Sinapis (rating): 1
[4]
  Pre-emergence action: Stellaria (rating): 1
[5]
  Post-emergence action: Setaria (rating): 2
[6]
  Post-emergence action: Avena (rating): 2
[7]
  Post-emergence action: Sinapis (rating): 1
[8]
  Post-emergence action: Stellaria (rating): 1

## C#CCn1c(-c2nn(C)c(C(F)(F)F)c2Br)c(F)cc(Cl)c1=O [Example 10.100]
[1]
  Pre-emergence action: Setaria (rating): 1
[2]
  Pre-emergence action: Avena (rating): 1
[3]
  Pre-emergence action: Sinapis (rating): 1
[4]
  Pre-emergence action: Stellaria (rating): 1
[5]
  Post-emergence action: Setaria (rating): 2
[6]
  Post-emergence action: Avena (rating): 1
[7]
  Post-emergence action: Sinapis (rating): 1
[8]
  Post-emergence action: Stellaria (rating): 1

## C#CCn1c(-c2nn(C)c(S(C)(=O)=O)c2C)c(F)cc(Cl)c1=O [Example 28.100]
[1]
  Pre-emergence action: Setaria (rating): 1
[2]
  Pre-emergence action: Avena (rating): 1
[3]
  Pre-emergence action: Sinapis (rating): 1
[4]
  Pre-emergence action: Stellaria (rating): 1
[5]
  Post-emergence action: Setaria (rating): 1
[6]
  Post-emergence action: Avena (rating): 1
[7]
  Post-emergence action: Sinapis (rating): 1
[8]
  Post-emergence action: Stellaria (rating): 1

Reference: patent US20020055639A1, “Pyrazole derivatives as herbicides” (priority 1997, published 2002)
